The values that follow are results of earlier work, collected in patent publication US20030143291A1, “Herbal compositions and methods for diabetes and weight loss management” (priority 2002, published 2003).

Data set [1] deals with Methicillin-resistant s. aureus.

Molecules are shown by their SMILES.

For `CC(C)C1=C2CCC(COC(=O)c3ccc(O)cc3)=CCC2(C)CC1` (centres unmarked) [Compound 6, 14-(4′-hydroxybenzoyloxy)dauc-4,8-diene], the “antimicrobial activity against Methicillin-resistant s. aureus” value in data set [1] is “antimicrobial activity”. For the same compound, the “antimicrobial activity against Staphylococcus aures” value in the data set with Staphylococcus aures is “antimicrobial activity”.
